Laboratory results published in article PMC5117956 (Drug Design, Development and Therapy, 2016).

How the values were obtained:
[1] = In vivo PK experiment: oral SQV with or without oral RESV; parameters: species or system rat; details: rats
[2] = low solubility and high permeability; cited from earlier work
[3] = clinical practice; cited from earlier work

## Oc1ccc(/C=C/c2cc(O)cc(O)c2)cc1 [RESV, resveratrol]
[1]; RESV 20 mg/kg oral with SQV 30 mg/kg oral, P>0.05
  Effect of coadministration on Cmax of SQV: not significantly affected

## CC(C)(C)NC(=O)[C@@H]1C[C@@H]2CCCC[C@@H]2CN1C[C@@H](O)[C@H](Cc1ccccc1)NC(=O)[C@H](CC(N)=O)NC(=O)c1ccc2ccccc2n1 [SQV, saquinavir]
[2]
  Biopharmaceutics Classification System class: class II
[1]; SQV 30 mg/kg oral, RESV (20 mg/kg) treatment group
  Time of first peak in plasma levels: ~0.25 h
[1]; SQV 30 mg/kg oral, both groups (with or without RESV 20 mg/kg)
  Time of second peak in plasma levels: ~ 4 h
[1]; SQV 30 mg/kg oral, control group
  Time of first peak in plasma levels: ~ 0.5 h
[3]
  Coefficient of variation (CV) of oral bioavailability: > 100%
  Oral bioavailability: ~ 4%
